From ChEMBL document CHEMBL1135480, “Design and quantitative structure-activity relationship of 3-amidinobenzyl-1H-indole-2-carboxamides as potent, nonchiral, and selective inhibitors of blood coagulation factor Xa” (J Med Chem, 2002)
Values joined by “and” are separate entries in the source; they are usually repeats but may differ in a detail not shown here. Equal values may be shown once.

Biological target: Coagulation factor X (Homo sapiens, UniProt P00742)
Experiment: Inhibition of Coagulation factor Xa

Coagulation factor X, sequence (P00742 41-179 limits assumed): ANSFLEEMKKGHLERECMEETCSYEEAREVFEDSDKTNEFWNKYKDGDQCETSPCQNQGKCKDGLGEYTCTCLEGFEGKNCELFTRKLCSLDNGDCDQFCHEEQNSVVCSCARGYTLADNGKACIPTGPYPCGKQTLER
Coagulation factor X, sequence (P00742 235-488 limits assumed): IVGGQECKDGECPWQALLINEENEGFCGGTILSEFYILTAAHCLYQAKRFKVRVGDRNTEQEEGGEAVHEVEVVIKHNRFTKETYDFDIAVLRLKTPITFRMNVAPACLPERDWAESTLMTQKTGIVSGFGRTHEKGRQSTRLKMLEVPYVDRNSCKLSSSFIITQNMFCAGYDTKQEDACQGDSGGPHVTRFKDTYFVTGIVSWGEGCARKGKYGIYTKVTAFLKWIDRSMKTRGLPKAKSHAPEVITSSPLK

| Structure (SMILES) | Ki |
| --- | --- |
| COc1cccc(CNC(=O)c2cc3c(O)cccc3n2Cc2cccc(C(=N)N)c2)c1 | 308 nM |
| N=C(N)c1cccc(Cn2c(C(=O)NCCc3ccc(Cl)c(Cl)c3)cc3c(O)cccc32)c1 | 918 nM |
| N=C(N)c1cccc(Cn2c(C(=O)NCCc3ccc(Cl)cc3Cl)cc3c(O)cccc32)c1 | 840 nM |
| C[C@H](NC(=O)c1cc2cc(OCc3ccccc3)ccc2n1Cc1cccc(C(=N)S)c1)c1ccccc1 | 4830 nM |
| C[N+]1(C)CCC(C(NC(=O)c2cc3ccccc3n2Cc2cccc(C(=N)N)c2)c2ccc3cc(Cl)ccc3c2)CC1 (configuration not stated) | 1310 nM |
| N=C(N)c1cccc(Cn2c(C(=O)NCC3CCCCC3)cc3c(O)cccc32)c1 | 1110 nM |
| COc1cccc2c1cc(C(=O)NC(c1ccccc1)c1ccncc1)n2Cc1cccc(C(=N)N)c1 (configuration not stated) | 6790 nM |
| CCOC(=O)c1cc2ccccc2n1Cc1cccc(C(=N)N)c1 | 4200 nM |
| N=C(N)c1cccc(CNC(=O)c2cn(Cc3cccc(C(=N)N)c3)c3ccccc23)c1 | 1230 nM |
| C[N+](C)(C)c1ccc(CNC(=O)c2cn(Cc3cccc(C(=N)N)c3)c3ccccc23)cc1 | 1820 nM |
| CN(C)c1ccc(CNC(=O)c2cc3cc(F)ccc3n2Cc2cccc(C(=N)N)c2)cc1 | 3520 nM |
| Cc1cccc2c1cc(C(=O)NCc1ccc([N+](C)(C)C)cc1)n2Cc1cccc(C(=N)N)c1 | 16 nM and 14 nM |
| C[n+]1cccc(CC(NC(=O)c2cc3ccccc3n2Cc2cccc(C(=N)N)c2)C(N)=O)c1 (configuration not stated) | 3900 nM |
| COC(=O)c1c(C(=O)NCc2cc[n+](C)cc2)n(Cc2cccc(C(=N)N)c2)c2ccccc12 | 350 nM |
| CCN(Cc1cc[n+](C)cc1)C(=O)c1cc2ccccc2n1Cc1cccc(C(=N)N)c1 | 500 nM |
| C[N+](C)(C)c1ccc(CNC(=O)c2cc3ccccc3n2Cc2cccc(C(=N)N)c2)cc1 | 400 nM |
| Cc1cccc2c1cc(C(N)=O)n2Cc1cccc(C(=N)N)c1 | 7910 nM |
| CSC(=O)c1cc2c(O)cccc2n1Cc1cccc(C(=N)N)c1 | 2990 nM |

| Structure (SMILES) | Ki |
| --- | --- |
| N=C(N)c1cccc(Cn2c(C(=O)NCc3ccccc3)cc3c(O)cccc32)c1 | 2030 nM |
| N=C(N)c1cccc(Cn2c(C(=O)NCc3ccc4ccc5cccc6ccc3c4c56)cc3c(O)cccc32)c1 | 2060 nM |
| N=C(N)c1cccc(Cn2c(C(=O)NNS(=O)(=O)c3ccccc3)cc3c(O)cccc32)c1 | 7050 nM |
| N=C(N)c1cccc(Cn2c(C(=O)NC(c3ccccc3)c3ccncc3)cc3ccccc32)c1 (configuration not stated) | 7030 nM |
| N=C(N)c1cccc(Cn2c(C(N)=O)cc3c(O)cccc32)c1 | 7160 nM |
| CN(C)c1ccc(CNC(=O)c2cn(Cc3cccc(C(=N)N)c3)c3ccccc23)cc1 | 2190 nM |
| N=C(N)c1cccc(Cn2c(C(=O)NCc3ccccc3Cl)cc3c(O)cccc32)c1 | 1200 nM |
| N=C(N)c1cccc(Cn2c(C(=O)NCc3ccc4ccccc4c3)cc3c(O)cccc32)c1 | 1720 nM |
| N=C(N)c1cccc(CNC(=O)c2cc3ccccc3n2Cc2cccc(C(=N)N)c2)c1 | 26 nM and 19 nM |
| N=C(N)c1cccc(Cn2c(C(=O)NCC(=O)Nc3ccc4ccccc4c3)cc3c(O)cccc32)c1 | 2380 nM |
| COc1ccc2c(cc(C(=O)NCc3ccncc3)n2Cc2cccc(C(=N)N)c2)c1OC | 5310 nM |
| N=C(N)c1ccc(CNC(=O)c2cn(Cc3cccc(C(=N)N)c3)c3ccccc23)cc1 | 1120 nM |
| N=C(N)c1cccc(Cn2c(C(=O)NCc3ccc(Cl)c(Cl)c3)cc3c(O)cccc32)c1 | 841 nM |
| COC(=O)c1c(C(=O)OC)n(Cc2cccc(C(=N)N)c2)c2ccccc12 | 7500 nM |
| COc1ccc(CNC(=O)c2cc3c(O)cccc3n2Cc2cccc(C(=N)N)c2)cc1 | 1360 nM |
| CCOC(=O)c1cc2c(C)cccc2n1Cc1cccc(C(=N)N)c1 | 948 nM |
| N=C(N)c1cccc(Cn2c(C(N)=O)cc3ccccc32)c1 | 5650 nM |

Now from value to compound:

| Ki | Structure (SMILES) |
| --- | --- |
| 193 nM | COc1cc(CNC(=O)c2cc3c(O)cccc3n2Cc2cccc(C(=N)N)c2)cc(OC)c1 |
| 133 nM | N=C(N)c1cccc(CNC(=O)c2cc3cc(OCc4ccccc4)ccc3n2Cc2cccc(C(=N)N)c2)c1 |
| 15 nM | Cc1cccc2c1cc(C(=O)NCc1nccc3ccccc13)n2Cc1cccc(C(=N)N)c1 |
| 300 nM | N=C(N)c1cccc(Cn2c(C(=O)NCc3ccnc4ccccc34)cc3c(O)cccc32)c1 |
| 240 nM | N=C(N)c1cccc(Cn2c(C(=O)NCc3cccc(C(N)=O)c3)cc3ccccc32)c1 |
| 68 nM | N=C(N)c1cccc(Cn2c(C(=O)NCc3cccc4ccccc34)cc3c(O)cccc32)c1 |
| 274 nM | N=C(N)c1cccc(Cn2c(C(=O)NCC34C[C@H]5C[C@@H](C3)C[C@@H](C4)C5)cc3c(O)cccc32)c1 |
| 39 nM | N=C(N)c1cccc(Cn2c(C(=O)NCc3cc(F)cc(C(F)(F)F)c3)cc3c(O)cccc32)c1 |
| 20 nM | N=C(N)c1cccc(Cn2c(C(=O)NCc3nccc4ccccc34)cc3c(O)cccc32)c1 |
| 25 nM | Cc1cccc2c1cc(C(=O)NCC1CCN(C(=N)N)CC1)n2Cc1cccc(C(=N)N)c1 |
| 77 nM | N=C(N)c1cccc(CNC(=O)c2cc3cc(O)ccc3n2Cc2cccc(C(=N)N)c2)c1 |
| 100 nM | C[n+]1ccc(CNC(=O)c2cc3cc(N)ccc3n2Cc2cccc(C(=N)N)c2)cc1 |
| 110 nM | COc1cccc2c1cc(C(=O)NCc1ccc(-c3cc[n+](C)cc3)cc1)n2Cc1cccc(C(=N)N)c1 |
| 84 nM | C[N+](C)(C)c1ccc(CNC(=O)c2cc3c(OCc4ccccc4)cccc3n2Cc2cccc(C(=N)N)c2)cc1 |
| 140 nM | C[N+](C)(C)c1ccc(CNC(=O)c2cc3cc(Cl)ccc3n2Cc2cccc(C(=N)N)c2)cc1 |
| 92 nM | CC(NC(=O)c1cc2ccccc2n1Cc1cccc(C(=N)N)c1)c1cc[n+](C)cc1 (configuration not stated) |
| 24 nM | C[N+](C)(C)c1ccc(CNC(=O)c2cc3c(Br)cccc3n2Cc2cccc(C(=N)N)c2)cc1 |
| 62 nM | COc1cccc2c1cc(C(=O)NCc1ccc([N+](C)(C)C)cc1)n2Cc1cccc(C(=N)N)c1 |
| 94 nM | COc1ccc2c(c1)cc(C(=O)NCc1ccc([N+](C)(C)C)cc1)n2Cc1cccc(C(=N)N)c1 |

| Ki | Structure (SMILES) |
| --- | --- |
| 170 nM | Cc1c(C(=O)NCc2cc[n+](C)cc2)n(Cc2cccc(C(=N)N)c2)c2ccccc12 |
| 23 nM | Cc1cccc2c1cc(C(=O)NCc1ccc([N+](C)(C)Cc3ccccc3)cc1)n2Cc1cccc(C(=N)N)c1 |
| 170 nM | COC(=O)CN(Cc1cc[n+](C)cc1)C(=O)c1cc2ccccc2n1Cc1cccc(C(=N)N)c1 |
| 141 nM | C=CC[N+](C)(C)c1ccc(CNC(=O)c2cc3cc(F)ccc3n2Cc2cccc(C(=N)N)c2)cc1 |
| 76 nM | C#CC[N+](C)(C)c1ccc(CNC(=O)c2cc3cc(F)ccc3n2Cc2cccc(C(=N)N)c2)cc1 |
| 160 nM | COc1cccc2c1cc(C(=O)NCCc1cc[n+](C)cc1)n2Cc1cccc(C(=N)N)c1 |
| 144 nM | C[N+](C)(C)c1ccc(CNC(=O)c2cc3cc([N+](=O)[O-])ccc3n2Cc2cccc(C(=N)N)c2)cc1 |
| 50 nM | Cc1cccc2c1c(Br)c(C(=O)NCc1cccc(C(=N)N)c1)n2Cc1cccc(C(=N)N)c1 |
| 99 nM | N=C(N)c1cccc(Cn2c(C(=O)NCc3cc(C(F)(F)F)cc(C(F)(F)F)c3)cc3c(O)cccc32)c1 |
| 89 nM | N=C(N)c1ccc(CNC(=O)c2cc3cc(N)ccc3n2Cc2cccc(C(=N)N)c2)cc1 |
| 304 nM | N=C(N)c1cccc(Cn2c(C(=O)NCc3cccc4ccccc34)c(Cl)c3ccccc32)c1 |
| 45 nM | Cc1cccc2c1cc(C(=O)NCC1CCC(C(=N)N)CC1)n2Cc1cccc(C(=N)N)c1 (configuration not stated) |
| 173 nM | Cc1cccc2c1cc(C(=O)NCc1ccnc3ccccc13)n2Cc1cccc(C(=N)N)c1 |
| 42 nM | N=C(N)c1cccc(Cn2c(C(=O)NCc3cccc(I)c3)cc3c(O)cccc32)c1 |
| 99 nM | N=C(N)c1cccc(Cn2c(C(=O)NCc3cc(Cl)cc(Cl)c3Cl)cc3c(O)cccc32)c1 |
| 183 nM | COc1cccc2c1cc(C(=O)NCc1ccc(O)cc1)n2Cc1cccc(C(=N)N)c1 |
| 180 nM | N=C(N)c1cccc(Cn2c(C(=O)NCc3cccc(NC(N)=O)c3)cc3c(O)cccc32)c1 |
| 26 nM | N=C(N)c1cccc(CNC(=O)c2c(Br)c3ccccc3n2Cc2cccc(C(=N)N)c2)c1 |

Biological target: Prothrombin (Homo sapiens, UniProt P00734)
Experiment: Inhibitory activity against human thrombin

| Structure (SMILES) | Ki [nM] |
| --- | --- |
| N=C(N)c1ccc(CNC(=O)c2cc3c(O)cccc3n2Cc2cccc(C(=N)N)c2)cc1 | 4200 |
| Cc1cc(CNC(=O)c2cc3c(O)cccc3n2Cc2cccc(C(=N)N)c2)cc(C(F)(F)F)c1 | 480 |
| Cc1cccc2c1cc(C(=O)NCc1cccc(C(=N)N)c1)n2Cc1cccc(C(=N)N)c1 | 2390 |
| N=C(N)c1cccc(CNC(=O)c2c(Cl)c3ccccc3n2Cc2cccc(C(=N)N)c2)c1 | 4240 |
| C[N+](C)(C)c1ccc(CNC(=O)c2cc3c(O)cccc3n2Cc2cccc(C(=N)N)c2)cc1 | 9090 |
| CC(C)(C)OC(=O)Nc1ccc2c(c1)cc(C(=O)NCc1ccc([N+](C)(C)C)cc1)n2Cc1cccc(C(=N)N)c1 | 28000 |
| Cc1cccc2c1cc(C(=O)NCc1cc(Cl)cc(Cl)c1)n2Cc1cccc(C(=N)N)c1 | 1610 |
| N=C(N)c1cccc(COC(=O)c2cc3ccccc3n2Cc2cccc(C(=N)N)c2)c1 | 2460 |
| Cc1cc(C)cc(CNC(=O)c2cc3c(C)cccc3n2Cc2cccc(C(=N)N)c2)c1 | 1420 |

The next lines start with the values.

| Ki [nM] | Structure (SMILES) |
| --- | --- |
| 200 | Cc1cccc2c1cc(C(=O)NCc1nccc3ccccc13)n2Cc1cccc(C(=N)N)c1 |
| 1710 | N=C(N)c1cccc(Cn2c(C(=O)NCc3cc(F)cc(C(F)(F)F)c3)cc3c(O)cccc32)c1 |
| 290 | N=C(N)c1cccc(Cn2c(C(=O)NCc3nccc4ccccc34)cc3c(O)cccc32)c1 |
| 57000 | C[n+]1ccc(CNC(=O)c2cc3cc(N)ccc3n2Cc2cccc(C(=N)N)c2)cc1 |
| 15800 | C[N+](C)(C)c1ccc(CNC(=O)c2cc3cc(Cl)ccc3n2Cc2cccc(C(=N)N)c2)cc1 |
| 3900 | Cc1cccc2c1cc(C(=O)NCc1ccc([N+](C)(C)Cc3ccccc3)cc1)n2Cc1cccc(C(=N)N)c1 |
| 2070 | Cc1cccc2c1c(Br)c(C(=O)NCc1cccc(C(=N)N)c1)n2Cc1cccc(C(=N)N)c1 |
| 1180 | N=C(N)c1cccc(Cn2c(C(=O)NCc3cc(C(F)(F)F)cc(C(F)(F)F)c3)cc3c(O)cccc32)c1 |
| 5600 | N=C(N)c1ccc(CNC(=O)c2cc3cc(N)ccc3n2Cc2cccc(C(=N)N)c2)cc1 |
| 270 | N=C(N)c1cccc(Cn2c(C(=O)NCc3cc(Cl)cc(Cl)c3Cl)cc3c(O)cccc32)c1 |
| 3290 | N=C(N)c1cccc(CNC(=O)c2c(Br)c3ccccc3n2Cc2cccc(C(=N)N)c2)c1 |
